Results on 29 compounds are retold here after PubChem BioAssay (NCI).

Molecules are shown by their SMILES. “And” between values parts separate entries of the source, which are not always exact repeats. Identical values can stand only once.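 Following 48 hours of exposure in 96-well plates, responses at five concentrations were used to interpolate endpoints linearly. GI50 is the concentration that inhibits growth by half. The concentration for full growth arrest is given as TGI.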

The subject of one test is SNB-75 CNS. Nature of the test: NCI-60 cell line screen, 48 h.
`Cc1nc2c(nc1Cl)nc(Oc1ccc(Cl)cc1)c1ccccc12`: the TGI is more than 100 µM.

The compound `CC(=O)Nc1ccccc1Sc1ccccc1` registered a TGI of more than 100 µM.

The compound `COC(=O)C[C@H]1CCC2(OCCO2)[C@]1(C)C(=O)OC` gave a TGI of more than 100 µM.

As for `CCCCCCCCCC[C@@H](O)[C@@H]1CC[C@H]([C@H]2CC[C@@H]([C@@H](O)CCCCCCCCCC[C@H]3CC(CC(C)=O)C(=O)O3)O2)O1` (stereo partly specified), the TGI came out at 26.9 µM.

In the case of `CCOc1ccc2c(c1)[n+]([O-])c(S(=O)(=O)c1ccc(C)cc1)c(N)[n+]2[O-]`, the TGI was more than 100 µM.

As to `CCOC(=O)NC(=O)c1cn(C2OC(COC(=O)CCCCCCCCC(=O)OCC3OC(n4cc(C(=O)NC(=O)OCC)c(=O)[nH]c4=O)C(O)C3O)C(O)C2O)c(=O)[nH]c1=O` (stereo unspecified), the TGI is more than 100 µM.

As to `Cc1ccc(C)c(NC(=O)CC/C(=N\NC(=O)C(=O)NN)C(C)C(=O)c2ccc(O)cc2)c1` (stereo unspecified), the TGI was more than 100 µM.

With `N=C1CSC2=NC3=C(CCC/C3=C\c3ccccc3)C(c3ccccc3)N12` (stereo unspecified), the TGI was 23.7 µM.

The compound `COc1ccc(CNc2cc(OC)c(OC)c(OC)c2)cc1` showed a TGI of 97.1 µM.

On to `COc1ccccc1C1C(C(=O)Nc2ccccc2)=C(C)NC(C)=C1C(=O)Nc1ccccc1`, for which the TGI is more than 100 µM.

As for `COc1cccc(-c2cc(=O)c3cc(N(C)C)ccc3[nH]2)c1`, the GI50 is 0.0271 µM and 0.00869 µM; the TGI is more than 100 µM.

Consider `CCCCCCCCCCCC(=O)CC(=O)c1c(O)cccc1O`, for which the TGI was 36.5 µM.

`CN(C(=O)C12C3C4C1C1C2C3C41C(=O)C(C)(C)C)C(C)(C)C` (stereo unspecified): the TGI is more than 100 µM.

Turning to `Cc1cc2c(cc1C)[n+](=O)c(C(=O)CC(=O)C(=O)Nc1c(C(C)C)cccc1C(C)C)c(C)n2[O-]`, the TGI was more than 100 µM.

With `COc1ccc2cc1Oc1ccc(cc1)CC1c3cc(c(OC)cc3CCN1C)Oc1c3c(cc4c1C(C2)N(C)CC4)OCO3` (stereo unspecified), the TGI was found to be 15.3 µM.

`COc1ccc(OC)c(NC(=O)C(=O)C(C(C)=O)c2nc3ccc(Cl)cc3[nH]c2=O)c1` (stereo unspecified) showed a TGI of more than 50 µM.

Compound `N#CC(C(=N/O)/C(=N/O)C(C#N)c1ccc(Cl)cc1)c1ccc(Cl)cc1` (stereo unspecified) came in with a TGI of more than 100 µM.

A further test relates to SK-OV-3 ovarian. Briefly: NCI-60 cell line screen, 48 h.
Regarding `CC1(Cl)C(=O)NC(=O)N(C2CC(N=[N+]=[N-])C(CO)O2)C1N=[N+]=[N-]` (stereo unspecified), the TGI was more than 100 µM.

In the case of `COc1ccc2ccc3c(c2c1)CN1CCc2cc(OC)c(OC)cc2C1C3` (stereo unspecified), the TGI was more than 100 µM.

On to `OCCC1(O)CCC(O)CC1` (stereo unspecified), for which the TGI was more than 100 µM.

Consider `CCCCNC1=C(C(=O)OCC)C(=O)CO1`, for which the TGI was more than 100 µM.

On to `CC(C)CC(=O)[O-].CC(C)CC(=O)[O-].N.N.N.N.[Co+3].[O-][Cl+3]([O-])([O-])[O-]`, for which the GI50 is more than 100 µM and the TGI is more than 100 µM.

With `COc1cc(C2c3cc4c(cc3C(NCC(O)CO)C3COC(=O)[C@H]23)OCO4)cc(OC)c1OC` (stereo partly specified), the TGI is more than 100 µM.

In turn, `COC(=O)CC(=O)C[P+](c1ccccc1)(c1ccccc1)c1ccccc1` yielded a TGI of more than 218 µM.

Compound `CC1(C)CC(/C=C2/OC(=O)c3ccccc32)=C(C#N)C(=O)O1` displayed a TGI of more than 100 µM.

`Cc1nc2c(nc1Cl)nc(Oc1ccc(Cl)cc1)c1ccccc12` came in with a TGI of more than 100 µM.

`CC(=O)Nc1ccccc1Sc1ccccc1` showed a TGI of more than 100 µM.

`COC(=O)C[C@H]1CCC2(OCCO2)[C@]1(C)C(=O)OC` showed a TGI of more than 100 µM.

On to `CCCCCCCCCC[C@@H](O)[C@@H]1CC[C@H]([C@H]2CC[C@@H]([C@@H](O)CCCCCCCCCC[C@H]3CC(CC(C)=O)C(=O)O3)O2)O1` (stereo partly specified), for which the TGI is 34.1 µM.

`CCOc1ccc2c(c1)[n+]([O-])c(S(=O)(=O)c1ccc(C)cc1)c(N)[n+]2[O-]` displayed a TGI of more than 100 µM.

For the compound `Cc1ccc(C)c(NC(=O)CC/C(=N\NC(=O)C(=O)NN)C(C)C(=O)c2ccc(O)cc2)c1` (stereo unspecified), the TGI is more than 100 µM.

`N=C1CSC2=NC3=C(CCC/C3=C\c3ccccc3)C(c3ccccc3)N12` (stereo unspecified) yielded a TGI of 28.4 µM.

Regarding `COc1ccc(CNc2cc(OC)c(OC)c(OC)c2)cc1`, the TGI was more than 90.5 µM.

In turn, `COc1ccccc1C1C(C(=O)Nc2ccccc2)=C(C)NC(C)=C1C(=O)Nc1ccccc1` had a TGI of more than 100 µM.

In the case of `OCc1ccc2[n+](c1)CCC1c3ccccc3NC21` (stereo unspecified), the TGI is more than 300 µM.

Consider `COc1cccc(-c2cc(=O)c3cc(N(C)C)ccc3[nH]2)c1`, for which the GI50 is 0.025 µM and 0.00359 µM.

`CCCCCCCCCCCC(=O)CC(=O)c1c(O)cccc1O` showed a TGI of 95.5 µM.

`CN(C(=O)C12C3C4C1C1C2C3C41C(=O)C(C)(C)C)C(C)(C)C` (stereo unspecified) displayed a TGI of more than 100 µM.

As for `Cc1cc2c(cc1C)[n+](=O)c(C(=O)CC(=O)C(=O)Nc1c(C(C)C)cccc1C(C)C)c(C)n2[O-]`, the TGI is more than 100 µM.

As for `COc1ccc(OC)c(NC(=O)C(=O)C(C(C)=O)c2nc3ccc(Cl)cc3[nH]c2=O)c1` (stereo unspecified), the TGI was more than 50 µM.

`N#CC(C(=N/O)/C(=N/O)C(C#N)c1ccc(Cl)cc1)c1ccc(Cl)cc1` (stereo unspecified) came in with a TGI of more than 100 µM.

The subject of the next test is K-562 leukemia. Briefly: NCI-60 cell line screen, 48 h.
Compound `CC1(Cl)C(=O)NC(=O)N(C2CC(N=[N+]=[N-])C(CO)O2)C1N=[N+]=[N-]` (stereo unspecified) registered a TGI of more than 100 µM.

In turn, `COc1ccc2ccc3c(c2c1)CN1CCc2cc(OC)c(OC)cc2C1C3` (stereo unspecified) returned a TGI of more than 100 µM.

Consider `OCCC1(O)CCC(O)CC1` (stereo unspecified), for which the TGI was more than 100 µM.

The compound `CCCCNC1=C(C(=O)OCC)C(=O)CO1` returned a TGI of more than 100 µM.

`CC(C)CC(=O)[O-].CC(C)CC(=O)[O-].N.N.N.N.[Co+3].[O-][Cl+3]([O-])([O-])[O-]`: the GI50 was more than 100 µM and the TGI was more than 100 µM.

Consider `COc1cc(C2c3cc4c(cc3C(NCC(O)CO)C3COC(=O)[C@H]23)OCO4)cc(OC)c1OC` (stereo partly specified), for which the TGI was more than 100 µM.

Take `COC(=O)CC(=O)C[P+](c1ccccc1)(c1ccccc1)c1ccccc1`: the TGI was more than 218 µM.

`CCCCN(CCCC)C(=O)C(=O)C(C#N)c1ccc(C)cc1` (stereo unspecified): the TGI was more than 100 µM.

The compound `Cc1ccc(S(=O)(=O)C(CC(=O)N2CCCC2)C(=O)c2ccccc2)cc1` (stereo unspecified) displayed a TGI of more than 100 µM.

With `CC1(C)CC(/C=C2/OC(=O)c3ccccc32)=C(C#N)C(=O)O1`, the TGI is more than 100 µM.

`Cc1nc2c(nc1Cl)nc(Oc1ccc(Cl)cc1)c1ccccc12` had a TGI of more than 100 µM.

Take `CC(=O)Nc1ccccc1Sc1ccccc1`: the TGI is more than 100 µM.

For `COC(=O)C[C@H]1CCC2(OCCO2)[C@]1(C)C(=O)OC`, the TGI is more than 100 µM.

The compound `CCCCCCCCCC[C@@H](O)[C@@H]1CC[C@H]([C@H]2CC[C@@H]([C@@H](O)CCCCCCCCCC[C@H]3CC(CC(C)=O)C(=O)O3)O2)O1` (stereo partly specified) showed a TGI of 33.4 µM.

`CCOc1ccc2c(c1)[n+]([O-])c(S(=O)(=O)c1ccc(C)cc1)c(N)[n+]2[O-]` displayed a TGI of more than 100 µM.

The compound `CC12CC[C@@H](C(C)(C)O)C1[C@@H](O)CC1(C)C2CCC2[C@@]3(C)CC[C@H](O)C(C)(C)C3C(O)C[C@]21C` (stereo partly specified) gave a TGI of 24.5 µM.

Turning to `CCOC(=O)NC(=O)c1cn(C2OC(COC(=O)CCCCCCCCC(=O)OCC3OC(n4cc(C(=O)NC(=O)OCC)c(=O)[nH]c4=O)C(O)C3O)C(O)C2O)c(=O)[nH]c1=O` (stereo unspecified), the TGI was more than 100 µM.
